Results published in US20090136616A1, “METHODS OF FEEDING RUMINANTS ON WINTER FORAGE SUPPLEMENTING WITH ZEOLITE” (priority 2007, published 2009).
Like-named read-outs stand apart in the source and are kept apart here.

Columns and labels:
[1] = test system: feedlot cattle; assay: Summary of seven feedlot experiments with Biolite in med and n-med finishing diets (rumen pH, liver abscesses, performance); type: in vivo; details: sample collected by Geishauser Probe prior to the morning feeding; B at 1.2% DMB
Description: These diets have been composed of corn silage for roughage, flaked corn, and a substantial amount of wet corn milling byproducts.
The feed additives used included Monensin sodium (R) and Tylosin phosphate (T).
Data collected included daily gain, consumption, feed efficiency, rumen pH and observations on bloat and metabolic problems. Carcass data including liver abscess occurrence were collected.
Rumen samples were collected from cattle prior to the morning feeding using a Geishauser Probe.

[2] = test system: Char-Hereford cross heifer calves; type: in vivo
Method: The experimental animals were Char-Hereford cross unweaned heifer calves originating from Western Ontario and Eastern Manitoba Canada. On arrival they were vaccinated for IBR, PI3 and BVD. They were treated for internal and external parasites with Ivomec. They were implanted with Synovex C.
Approximately 350 head of calves were purchased weighing approximately 500 lbs. From this group 160 head and were selected for the experiment and randomly allotted into four experimental groups. Each treatment contains 5 reps of 8 head each. They were grown on a medium energy level diet limit fed calculated to obtain a daily gain of approximately 2.6 lbs. Length of feeding period will be approximately 100 days. After arrival and prior to the trial allotment they were each-backgrounded for approximately 3-4 weeks. They averaged approximately 550 lbs at the beginning of the trial.
Data collected included: • 1. Gain, consumption and conversions at 28 day intervals and overall. • 2. Observations on bloat and metabolic problems. • 3. Cost of gain by treatment including feed and feed additive cost, with no yardage or “mark up”.
Originally the trial was scheduled for 100 days, but because of unusually good performance, it was decided to terminate at 91 days.

[3] = test system: Angus cross steer and heifer calves; details: bovine, in vivo
Method: The experimental animals were Angus cross steer and heifer calves from Manitoba, Canada. They were trucked to the experimental feedlot located near Kitchener, Ontario, Canada. On arrival of the animal received IBR, PIP and BVD vaccine plus Covexina. They were also treated for internal and external parasites with Ivomec pour on. Prior to the beginning of this trial the calves were preconditioned for approximately 45 days and adapted to a high concentrate diet.
Following the preconditioning period, unhealthy calves were removed and the remaining calves were divided into steer and heifer groups. These groups were then divided at random into 20 pens of steers and 20 pens of heifers. Each of the pens contained 8 head of calves. Five pens of steers and 5 pens of heifers were then allotted to each of 4 experimental treatments.
Initial, 28 day interim weights and final weights were based on gross weights less a 4% pencil shrink. Experimental data collected included average daily gain, feed consumption and feed conversions. In addition, death loss and bloat problems were observed. At the termination of the trial, Rumen pH was measured on 4 animals from each treatment using a Geishauser Probe. The pH measurements were taken at 2, 4 and 6 hours after feeding.
A calcium clinoptilolite zeolite (Biolite®) was added in place of an equivalent amount of corn. […]

[4] = summarized: NC vs RT and BL vs no BL treatments pooled

Substance: Monensin sodium [R]
- rumen pH [1]: R 6.43b means with different super script letter differ, P < .OS O 6.46b

Substance: Nova-Cell + Biolite [NC + BL]
- Bloat Treated ([2]; bovine, in vivo): 0

Substance: Nova-Cell [NC]
- Bloat Died ([2]; 91 days): 0
- Bloat Treated ([2]; 91 days): 0
- Consumption ([2]; 91 days): 17.0αb
- Conversions ([2]; 91 days): 5.97b
- ADG ([2]; 91 days, limit fed grow ration, BL at 1.2% DMB): 2.85b
- ADG [2, 4]: 3.03α
- Consumption [2, 4]: 17.11α
- Conversions [2, 4]: 5.70

Substance: calcium clinoptilolite zeolite [Biolite ®]
- Metabolics Treated [3]: 4
